Experimental data as given in patent US12162840B2, “Herbicidal compositions” (SYNGENTA PARTICIPATIONS AG, priority 2018, dated 2024).

Tests used:
Type in all cases: in vivo
[1] = system: warm season plant species; test: B2 Post-emergence efficacy Test 2, warm season plant species; conditions: 15 days after application, 0-100 scale, 0=no damage, 100=total kill; for Herbicidal activity, ABUTH: Abutilon theophrasti; for Herbicidal activity, AMARE: Amaranthus retroflexus; for Herbicidal activity, BIDPI: Bidens pilosa; for Herbicidal activity, BRAPL: Brachiaria plantaginea; for Herbicidal activity, DIGSA: Digitaria sanguinalis; for Herbicidal activity, ECHCG: Echinochloa crus galli; for Herbicidal activity, ELEIN: Eleisine indica; for Herbicidal activity, EPHHL: Euphorbia hetrophylla; for Herbicidal activity, GLXMA: Glycine max; for Herbicidal activity, IPOHE: Ipomoea hederacea; for Herbicidal activity, ORYSA: Orysa sativa; for Herbicidal activity, PANMI: Panicum miliaceum; for Herbicidal activity, SETFA: Setaria faberi; for Herbicidal activity, SIDSP: Sida spinosa; for Herbicidal activity, SORVU: Sorghum bicolour; for Herbicidal activity, XANST: Xanthium strumarium; for Herbicidal activity, ZEAMX: Zea mays
Experimental: Seeds of a variety of test species (see Table B1) were sown in standard soil in pots. After cultivation for 12 days (post-emergence) under controlled conditions in a glasshouse (at 24/18° C. or 20/16° C., at day/night; 16 hours light; 65% humidity), the plants were sprayed with an aqueous spray solution derived from the formulation of the technical active ingredient dissolved in IF50 (see Table B2 for composition) and adjuvant (Genapol XO80) was added to the spray solution at a rate of 0.2% v/v. [table] [table] After application, the test plants were grown in a glasshouse under controlled conditions (as above) and watered twice daily. Herbicidal activity was evaluated 15 days after application on a 0-100 scale. The results, where 0=no damage to test plant and 100=total kill of test plant are shown below in Tables 6 to 9.

Solanum nigrum (SOLNI) = test: B1 Post-emergence efficacy Test 1; conditions: post-emergence application, 1000 g/ha, evaluated after 13 days
In short: (§1)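 Post-emergence spray, 1000 g/ha, acetone/water 50:50 + 0.5% Tween 20, on 8-day-old potted plants. Glasshouse 24/16 °C, 14 h light, 65% RH, watered twice daily. Damage read at 13 d, scored 1–5 (1=0-19%, 5=80-100%).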

Lolium perenne (LOLPE) = test: B1 Post-emergence efficacy Test 1; conditions: post-emergence application, 1000 g/ha, evaluated after 13 days
In short: as §1

[2] = system: Ipomoea hederacea (IPOHE); test: B1 Post-emergence efficacy Test 1; conditions: post-emergence application, 1000 g/ha, evaluated after 13 days
In short: as §1

Setaria faberi (SETFA) = test: B1 Post-emergence efficacy Test 1; conditions: post-emergence application, 1000 g/ha, evaluated after 13 days
In short: as §1

[3] = system: Amaranthus retoflexus (AMARE); test: B1 Post-emergence efficacy Test 1; conditions: post-emergence application, 1000 g/ha, evaluated after 13 days
In short: as §1

[4] = system: Echinochloa crus-galli (ECHCG); test: B1 Post-emergence efficacy Test 1; conditions: post-emergence application, 1000 g/ha, evaluated after 13 days
In short: as §1

Q: Which results are given for `Cc1nn(C)c(=O)c(-c2c(F)ccc(Cl)c2CCc2ccc(F)cc2)c1OC(=O)C(C)C` [Compound 1.125]?
A: Herbicidal activity, ABUTH ([1]; 15 g/Ha): 80; Herbicidal activity, ABUTH ([1]; 30 g/Ha): 90; Herbicidal activity, ABUTH ([1]; 60 g/Ha): 90; Herbicidal activity, ABUTH ([1]; 125 g/Ha): 90; Herbicidal activity, ABUTH ([1]; 250 g/Ha): 100; Herbicidal activity, ABUTH ([1]; 500 g/Ha): 100; Herbicidal activity, AMARE ([1]; 15 g/Ha): 80; Herbicidal activity, AMARE ([1]; 30 g/Ha): 90; Herbicidal activity, AMARE ([1]; 60 g/Ha): 90; Herbicidal activity, AMARE ([1]; 125 g/Ha): 100; Herbicidal activity, AMARE ([1]; 250 g/Ha): 100; Herbicidal activity, AMARE ([1]; 500 g/Ha): 100; Herbicidal activity, BIDPI ([1]; 15 g/Ha): 60; Herbicidal activity, BIDPI ([1]; 30 g/Ha): 60; Herbicidal activity, BIDPI ([1]; 60 g/Ha): 70; Herbicidal activity, BIDPI ([1]; 125 g/Ha): 70; Herbicidal activity, BIDPI ([1]; 250 g/Ha): 80; Herbicidal activity, BIDPI ([1]; 500 g/Ha): 100; Herbicidal activity, BRAPL ([1]; 15 g/Ha): 80; Herbicidal activity, BRAPL ([1]; 60 g/Ha): 80; Herbicidal activity, BRAPL ([1]; 125 g/Ha): 80; Herbicidal activity, BRAPL ([1]; 250 g/Ha): 70; Herbicidal activity, BRAPL ([1]; 500 g/Ha): 80; Herbicidal activity, DIGSA ([1]; 15 g/Ha): 0; Herbicidal activity, DIGSA ([1]; 30 g/Ha): 0; Herbicidal activity, DIGSA ([1]; 60 g/Ha): 0; Herbicidal activity, DIGSA ([1]; 125 g/Ha): 10; Herbicidal activity, DIGSA ([1]; 250 g/Ha): 30; Herbicidal activity, DIGSA ([1]; 500 g/Ha): 70; Herbicidal activity, ECHCG ([1]; 15 g/Ha): 70; Herbicidal activity, ECHCG ([1]; 30 g/Ha): 80; Herbicidal activity, ECHCG ([1]; 60 g/Ha): 80; Herbicidal activity, ECHCG ([1]; 125 g/Ha): 80; Herbicidal activity, ECHCG ([1]; 250 g/Ha): 90; Herbicidal activity, ECHCG ([1]; 500 g/Ha): 100; Herbicidal activity, ELEIN ([1]; 15 g/Ha): 40; Herbicidal activity, ELEIN ([1]; 30 g/Ha): 40; Herbicidal activity, ELEIN ([1]; 60 g/Ha): 70; Herbicidal activity, ELEIN ([1]; 125 g/Ha): 70; Herbicidal activity, ELEIN ([1]; 250 g/Ha): 80; Herbicidal activity, ELEIN ([1]; 500 g/Ha): 80; Herbicidal activity, EPHHL ([1]; 15 g/Ha): 90; Herbicidal activity, EPHHL ([1]; 30 g/Ha): 90; Herbicidal activity, EPHHL ([1]; 60 g/Ha): 100; Herbicidal activity, EPHHL ([1]; 125 g/Ha): 100; Herbicidal activity, EPHHL ([1]; 250 g/Ha): 100; Herbicidal activity, EPHHL ([1]; 500 g/Ha): 100; Herbicidal activity, GLXMA ([1]; 15 g/Ha): 40; Herbicidal activity, GLXMA ([1]; 30 g/Ha): 70; Herbicidal activity, GLXMA ([1]; 60 g/Ha): 70; Herbicidal activity, GLXMA ([1]; 250 g/Ha): 90; Herbicidal activity, GLXMA ([1]; 500 g/Ha): 90; Herbicidal activity, IPOHE ([1]; 15 g/Ha): 90; Herbicidal activity, IPOHE ([1]; 30 g/Ha): 100; Herbicidal activity, IPOHE ([1]; 60 g/Ha): 100; Herbicidal activity, IPOHE ([1]; 125 g/Ha): 100; Herbicidal activity, IPOHE ([1]; 250 g/Ha): 100; Herbicidal activity, IPOHE ([1]; 500 g/Ha): 100; Herbicidal activity, ORYSA ([1]; 15 g/Ha): 0; Herbicidal activity, ORYSA ([1]; 30 g/Ha): 0; Herbicidal activity, ORYSA ([1]; 60 g/Ha): 0; Herbicidal activity, ORYSA ([1]; 125 g/Ha): 0; Herbicidal activity, ORYSA ([1]; 250 g/Ha): 0; Herbicidal activity, ORYSA ([1]; 500 g/Ha): 0; Herbicidal activity, PANMI ([1]; 15 g/Ha): 20; Herbicidal activity, PANMI ([1]; 30 g/Ha): 30; Herbicidal activity, PANMI ([1]; 60 g/Ha): 50; Herbicidal activity, PANMI ([1]; 125 g/Ha): 50; Herbicidal activity, PANMI ([1]; 250 g/Ha): 70; Herbicidal activity, PANMI ([1]; 500 g/Ha): 80; Herbicidal activity, SETFA ([1]; 15 g/Ha): 0; Herbicidal activity, SETFA ([1]; 30 g/Ha): 10; Herbicidal activity, SETFA ([1]; 60 g/Ha): 20; Herbicidal activity, SETFA ([1]; 125 g/Ha): 20; Herbicidal activity, SETFA ([1]; 250 g/Ha): 20; Herbicidal activity, SETFA ([1]; 500 g/Ha): 100; Herbicidal activity, SIDSP ([1]; 60 g/Ha): 80; Herbicidal activity, SIDSP ([1]; 125 g/Ha): 90; Herbicidal activity, SIDSP ([1]; 250 g/Ha): 90; Herbicidal activity, SIDSP ([1]; 500 g/Ha): 100; Herbicidal activity, SORVU ([1]; 15 g/Ha): 0; Herbicidal activity, SORVU ([1]; 30 g/Ha): 50; Herbicidal activity, SORVU ([1]; 60 g/Ha): 50; Herbicidal activity, SORVU ([1]; 125 g/Ha): 70; Herbicidal activity, SORVU ([1]; 250 g/Ha): 80; Herbicidal activity, SORVU ([1]; 500 g/Ha): 90; Herbicidal activity, XANST ([1]; 30 g/Ha): 90; Herbicidal activity, XANST ([1]; 60 g/Ha): 90; Herbicidal activity, XANST ([1]; 125 g/Ha): 90; Herbicidal activity, XANST ([1]; 250 g/Ha): 90; Herbicidal activity, XANST ([1]; 500 g/Ha): 100; Herbicidal activity, ZEAMX ([1]; 15 g/Ha): 0; Herbicidal activity, ZEAMX ([1]; 30 g/Ha): 20; Herbicidal activity, ZEAMX ([1]; 60 g/Ha): 30; Herbicidal activity, ZEAMX ([1]; 125 g/Ha): 20; Herbicidal activity, ZEAMX ([1]; 250 g/Ha): 40; Herbicidal activity, ZEAMX ([1]; 500 g/Ha): 70; percentage damage caused to the plant, five point scale, SOLNI (Solanum nigrum (SOLNI)): 5 (5=80-100%); percentage damage caused to the plant, five point scale, LOLPE (Lolium perenne (LOLPE)): 5 (5=80-100%); percentage damage caused to the plant, five point scale, IPOHE [2]: 5 (5=80-100%); percentage damage caused to the plant, five point scale, SETFA (Setaria faberi (SETFA)): 5 (5=80-100%); percentage damage caused to the plant, five point scale, AMARE [3]: 5 (5=80-100%); percentage damage caused to the plant, five point scale, ECHCG [4]: 5 (5=80-100%)
